# Test results taken from patent US7071231B2, “Naphthalene ureas as glucose uptake enhancers” (Telik, Inc., priority 1999, dated 2006).
# Columns and labels:
# ob/ob mouse = experiment: Blood glucose, insulin and triglycerides in the ob/ob mouse model of Type 2 diabetes; format: in vivo; settings: ob/ob mice, single dose 30 mg/kg, p.o.
# Method: Lowering of Blood Glucose, Insulin and Triglycerides in the ob/ob Mouse Model of Type 2 Diabetes Another standard model of Type 2 diabetes is the ob/ob mouse. Male ob/ob mice (C57 BL/6J-ob) were housed 3–5 to a cage with free access to standard rodent chow pellets. After one week, they were given a single dose of Compound 15 (30 mg/kg, p.o.). Compound 15 produced a 13% decrease in blood glucose levels, a 42% decrease in plasma insulin levels, and a 15% decrease in plasma triglyceride levels. The concomitant reduction of plasma glucose and insulin levels are consistent with a reduction in insulin resistance.
# CYP3A4 = CYP3A4 (Homo sapiens, UniProt P08684); experiment: P450 interactions: CYP3A4 inhibition; format: in vitro ADME; settings: human cytochromes P450
# Excerpt: (§1) A major pathway for elimination of drugs from the body, which may limit their effectiveness, is the cytochrome P450 system of the liver.
# CYP2C19 = CYP2C19 (Homo sapiens, UniProt P33261); experiment: P450 interactions: CYP2C19 inhibition; format: in vitro ADME; settings: human cytochromes P450
# Excerpt: as §1
# 3T3 L1 fibroblasts = experiment: Glucose transport activity assay (14C-2-deoxy-D-glucose uptake); format: cell-based
# How it was run: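 Differentiated 3T3 L1 adipocytes (IBMX/dexamethasone/insulin induction), serum-starved overnight, preincubated 30 min at 37 °C with compound ± insulin in pH 7.4 salt buffer, then 30 min with 5 μCi/ml 14C-2-deoxy-D-glucose. Lysate radioactivity counted; EC = concentration raising uptake above 150% of vehicle control.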
# CYP1A2 = CYP1A2 (Homo sapiens, UniProt P05177); experiment: P450 interactions: CYP1A2 inhibition; format: in vitro ADME; settings: human cytochromes P450
# Excerpt: as §1
# male CD rats = experiment: Acute toxicity in CD rats; format: in vivo; settings: p.o., 300 mg/kg in PBS
# Method: Compound 15 was administered in PBS vehicle to male db/db mice (i.p.) and male CD rats (p.o.) at 300 mg/kg, which is approximately 10 times its effective dose.
# insulin receptor = target: T1, insulin receptor (Rattus norvegicus, UniProt P15127); experiment: Rat muscle insulin receptor phosphorylation after oral dose; format: in vivo; settings: STZ/HFD rats, oral dose 30 mg/kg, muscle samples 0.5-6 hr (FIG. 12)
# T1 construct: from tissue; host or cells: rat muscle (in vivo oral dosing)
# Method: Rat Muscle Phosphorylation
# Muscle is a particularly important tissue for taking up glucose from the blood in response to insulin receptor stimulation. Activation of muscle insulin receptors is, therefore, an important factor in the control of blood glucose levels. STZ/HFD rats prepared as in Example 18 were given an oral dose of Compound 15 (30 mg/kg), and muscle samples were harvested at different time points (0.5 hr, 1 hr, 2 hr, 3 hr, 4 hr, 6 hr) and homogenized in extraction buffer (50 mM Tris.HCl pH 7.4, 150 mM NaCl, 0.25% sodium deoxycholate, 1% NP40, 1 mM EGTA, 1 mM PMSF, 1 mM Na3VO4, 1 mM NaF, 1 ug/ml each of Aprotinin, Leupeptin and Pepstatin). The tissue homogenate was centrifuged at 12K for 30 min at 4° C., and the supernatants were saved. An equal protein amount from each sample was immunoprecipitated with anti-insulin receptor antibody for 2 hr at 4° C., followed by another 1 hr incubation with Protein G-Agarose beads. The immunecomplexes were washed three times with the extraction buffer, and the samples were boiled in 2× SDS-PAGE loading buffer for 5 min at 100° C. The samples were resolved in a 7.5% SDS-PAGE along with Amersham rainbow marker protein as a molecular weight standard. […]
# [1] = Distribution of compound-[14C]-15 after oral administration; format: in vivo, rat; settings: STZ/HFD rats, single oral dose 30 mg/kg 14C-labeled, two hours later
# Method: Distribution of Compound-[14C]-15 After Oral Administration
# STZ/HFD rats, prepared as in Example 19, were given a single oral dose of 30 mg/kg compound-[14C]-15 labeled with 50 μCi of 14C prepared as in Example 11A. Two hours later the animals were euthanized and 200 mg samples of various tissues were removed by an IACUC-approved protocol. The tissue samples were homogenized and their radioactivity content was measured by scintillation counting. The highest levels of radioactivity were found in the pancreas, liver, and thigh muscle. These corresponded to Compound 15 concentrations of approximately 780 nM, 200 nM, and 175 nM, respectively. These concentrations would be sufficient to produce insulin receptor phosphorylation in vitro. Lower levels of radioactivity indicative of 50 nM to 100 nM concentrations of the compound were found in abdominal muscle, fat, kidney, and spleen.
# Chain of CYP3A4 (P08684 whole entry): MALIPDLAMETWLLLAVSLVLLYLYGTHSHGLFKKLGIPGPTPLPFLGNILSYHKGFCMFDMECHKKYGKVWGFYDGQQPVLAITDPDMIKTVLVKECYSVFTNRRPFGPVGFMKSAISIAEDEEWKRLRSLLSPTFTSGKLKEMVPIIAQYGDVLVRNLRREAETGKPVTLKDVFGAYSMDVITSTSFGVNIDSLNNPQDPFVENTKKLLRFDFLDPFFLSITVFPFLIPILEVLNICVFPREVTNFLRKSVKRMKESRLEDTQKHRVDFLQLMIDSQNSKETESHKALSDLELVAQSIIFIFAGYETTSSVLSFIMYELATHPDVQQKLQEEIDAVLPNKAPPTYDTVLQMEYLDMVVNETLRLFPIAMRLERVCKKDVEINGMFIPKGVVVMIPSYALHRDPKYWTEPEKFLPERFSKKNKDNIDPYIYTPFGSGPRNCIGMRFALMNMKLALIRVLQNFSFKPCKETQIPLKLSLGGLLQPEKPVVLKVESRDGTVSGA
# T1 sequence (P15127 764-1383 limits assumed): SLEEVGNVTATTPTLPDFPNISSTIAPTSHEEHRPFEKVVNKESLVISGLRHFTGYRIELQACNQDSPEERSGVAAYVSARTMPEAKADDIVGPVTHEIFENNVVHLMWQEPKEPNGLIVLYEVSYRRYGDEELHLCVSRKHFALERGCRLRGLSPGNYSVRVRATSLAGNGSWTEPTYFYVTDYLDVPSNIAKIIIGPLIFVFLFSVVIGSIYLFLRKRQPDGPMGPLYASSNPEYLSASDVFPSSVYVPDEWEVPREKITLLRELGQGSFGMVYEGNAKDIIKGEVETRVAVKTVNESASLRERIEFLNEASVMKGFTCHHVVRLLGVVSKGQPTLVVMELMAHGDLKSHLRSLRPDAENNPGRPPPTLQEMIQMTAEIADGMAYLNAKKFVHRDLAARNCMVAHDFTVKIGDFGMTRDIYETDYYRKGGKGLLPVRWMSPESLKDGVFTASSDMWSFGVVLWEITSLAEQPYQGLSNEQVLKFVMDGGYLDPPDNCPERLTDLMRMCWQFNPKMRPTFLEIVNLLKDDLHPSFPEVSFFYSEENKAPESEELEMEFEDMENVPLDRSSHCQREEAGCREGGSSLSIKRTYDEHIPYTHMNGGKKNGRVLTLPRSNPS
# T1 sequence (P15127 27-759 partner limits assumed): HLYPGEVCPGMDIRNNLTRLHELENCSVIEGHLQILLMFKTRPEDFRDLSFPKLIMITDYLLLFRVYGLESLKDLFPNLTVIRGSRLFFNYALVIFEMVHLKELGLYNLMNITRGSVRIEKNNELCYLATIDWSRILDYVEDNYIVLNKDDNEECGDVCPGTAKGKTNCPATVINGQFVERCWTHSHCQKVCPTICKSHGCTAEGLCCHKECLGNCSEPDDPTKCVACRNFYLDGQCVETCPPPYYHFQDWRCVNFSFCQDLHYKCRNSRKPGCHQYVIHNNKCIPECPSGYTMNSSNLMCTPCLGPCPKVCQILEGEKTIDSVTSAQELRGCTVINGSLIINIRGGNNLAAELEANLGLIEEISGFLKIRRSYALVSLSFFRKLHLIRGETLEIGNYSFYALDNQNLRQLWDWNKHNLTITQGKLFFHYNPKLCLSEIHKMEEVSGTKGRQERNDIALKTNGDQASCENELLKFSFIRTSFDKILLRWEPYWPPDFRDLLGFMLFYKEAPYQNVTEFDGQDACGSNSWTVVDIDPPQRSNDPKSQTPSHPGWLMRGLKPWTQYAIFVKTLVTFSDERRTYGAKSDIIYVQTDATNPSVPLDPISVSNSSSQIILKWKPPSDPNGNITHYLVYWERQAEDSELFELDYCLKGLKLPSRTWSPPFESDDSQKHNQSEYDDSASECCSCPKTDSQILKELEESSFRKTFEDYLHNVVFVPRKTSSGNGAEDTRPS
# Chain of CYP1A2 (P05177 whole entry): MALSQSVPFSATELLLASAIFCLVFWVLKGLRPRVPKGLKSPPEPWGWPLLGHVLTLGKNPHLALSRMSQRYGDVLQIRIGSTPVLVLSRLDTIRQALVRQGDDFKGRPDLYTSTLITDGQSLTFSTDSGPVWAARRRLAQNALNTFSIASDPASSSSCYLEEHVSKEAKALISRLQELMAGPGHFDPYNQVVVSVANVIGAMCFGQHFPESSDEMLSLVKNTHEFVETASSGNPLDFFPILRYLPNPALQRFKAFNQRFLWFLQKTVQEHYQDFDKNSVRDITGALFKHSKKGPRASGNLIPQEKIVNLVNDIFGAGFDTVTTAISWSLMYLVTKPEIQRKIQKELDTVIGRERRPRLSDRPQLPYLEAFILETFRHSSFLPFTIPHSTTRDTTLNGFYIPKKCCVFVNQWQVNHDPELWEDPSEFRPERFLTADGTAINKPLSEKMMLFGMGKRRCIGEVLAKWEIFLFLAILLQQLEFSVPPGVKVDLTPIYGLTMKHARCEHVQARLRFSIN
# Chain of CYP2C19 (P33261 whole entry): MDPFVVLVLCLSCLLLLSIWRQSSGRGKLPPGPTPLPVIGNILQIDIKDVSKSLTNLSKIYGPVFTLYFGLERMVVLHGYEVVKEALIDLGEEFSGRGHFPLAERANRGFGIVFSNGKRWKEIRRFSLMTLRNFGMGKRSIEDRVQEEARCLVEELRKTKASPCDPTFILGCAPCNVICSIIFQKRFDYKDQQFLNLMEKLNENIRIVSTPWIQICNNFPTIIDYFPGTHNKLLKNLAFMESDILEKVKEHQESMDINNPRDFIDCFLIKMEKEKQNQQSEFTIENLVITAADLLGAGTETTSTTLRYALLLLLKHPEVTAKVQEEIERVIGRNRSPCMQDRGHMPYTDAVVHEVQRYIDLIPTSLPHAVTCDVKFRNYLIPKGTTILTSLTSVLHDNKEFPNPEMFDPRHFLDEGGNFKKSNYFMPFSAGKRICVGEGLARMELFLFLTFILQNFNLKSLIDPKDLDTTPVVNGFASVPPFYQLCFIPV
smiles,measurement,setting,value
"O=C(Nc1ccc2c(O)cc(S(=O)(=O)Nc3cccc(S(=O)(=O)O)c3)cc2c1)Nc1ccc2c(O)cc(S(=O)(=O)Nc3cccc(S(=O)(=O)O)c3)cc2c1 [Compound 15, 3-{[(4-hydroxy-7-{[N-(5-hydroxy-7-{[(3-sulfophenyl)amino]sulfonyl}(2-naphthyl))carbamoyl]amino}-2-naphthyl)sulfonyl]amino}benzenesulfonic acid]",decrease in blood glucose levels,ob/ob mouse,13%
same,decrease in plasma insulin levels,ob/ob mouse,42%
same,decrease in plasma triglyceride levels,ob/ob mouse,15%
same,inhibition of catalytic activity of CYP3A4,CYP3A4,did not inhibit
same,inhibition of catalytic activity of CYP2C19,CYP2C19,did not inhibit
same,EC (150% of vehicle control),"3T3 L1 fibroblasts; Mus musculus, EC (effective concentration) for increase in glucose transport, 14C-2-deoxy-D-glucose, 3T3 L1 cells, read-out: Concentration (μM) to reach >150% activity of vehicle control",3.2 µM
same,glucose uptake of cells,3T3 L1 fibroblasts; in the presence or absence of insulin (FIG. 3),increase in glucose uptake of cells
same,inhibition of catalytic activity of CYP1A2,CYP1A2,did not inhibit
same,acute toxicity,male CD rats,No acute toxicity was seen
same,phosphorylation of the insulin receptor in muscle,insulin receptor,produced an increase in phosphorylation of the insulin receptor
same,amount of radioactivity in the blood,[1],not above background levels
same,"tissue concentration, liver",[1],~200 nM
same,"tissue concentration, pancreas",[1],approximately 780 nM
same,"tissue concentration, thigh muscle",[1],~175 nM
